Measured values from PubChem BioAssay AID248 (DTP/NCI, 2004).
Several values for one entry are separate records, joined by “and”; a condition that tells them apart may be missing. Identical values can stand only once. Toxic doses and inconclusive results are not listed. Square brackets hold non-standard residues; d marks the D form. Peptide text beside a SMILES is read from it. ξ: configuration not given here. ξF = NC(Cc1ccccc1)C(=O)O

Tested on: L1210 leukemia ip in BDF1 mice, survival T/C
Assay: NCI In Vivo Anticancer Drug Screen. Data for tumor model L1210 Leukemia (intraperitoneal) in B6D2F1 (BDF1) mice
Conditions: higher = longer survival
Method in brief: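 Each compound was tested against a transplantable tumor grown in mice. The endpoint was survival, with treated animals benchmarked against vehicle controls as a simple ratio.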

[1] = endpoint: mean survival time, dose: 100.0 mg/kg/injection, schedule: Q01DX001 (ip), vehicle: saline
[2] = endpoint: mean survival time, dose: 100.0 mg/kg/injection, schedule: Q04DX003 (ip), vehicle: saline
[3] = endpoint: mean survival time, dose: 200.0 mg/kg/injection, schedule: Q01DX001 (ip), vehicle: saline
[4] = endpoint: mean survival time, dose: 200.0 mg/kg/injection, schedule: Q01DX009 (ip), vehicle: Klucel (hydroxypropylcellulose) (HPC)
[5] = endpoint: mean survival time, dose: 200.0 mg/kg/injection, schedule: Q04DX003 (ip), vehicle: saline
[6] = endpoint: mean survival time, dose: 400.0 mg/kg/injection, schedule: Q01DX001 (ip), vehicle: saline

CCN(CC)CCNc1ccc(CO)c2sc3ccccc3c(=O)c12
T/C (endpoint: mean survival time, dose: 8.0 mg/kg/injection, schedule: Q01DX009 (ip), vehicle: clinical formulation): 108 % of control
T/C (endpoint: mean survival time, dose: 8.0 mg/kg/injection, schedule: Q01DX009 (ip), vehicle: water): 106 % of control
T/C (endpoint: mean survival time, dose: 16.0 mg/kg/injection, schedule: Q01DX009 (ip), vehicle: clinical formulation): 112 % of control
T/C (endpoint: mean survival time, dose: 16.0 mg/kg/injection, schedule: Q01DX009 (ip), vehicle: water): 92 % of control
T/C (endpoint: mean survival time, dose: 18.75 mg/kg/injection, schedule: Q01DX009 (ip), vehicle: saline): 118 % of control
T/C (endpoint: mean survival time, dose: 22.0 mg/kg/injection, schedule: Q01DX009 (ip), vehicle: saline): 115 % of control
T/C (endpoint: mean survival time, dose: 32.0 mg/kg/injection, schedule: Q01DX009 (ip), vehicle: clinical formulation): 121 % of control
T/C (endpoint: mean survival time, dose: 32.0 mg/kg/injection, schedule: Q01DX009 (ip), vehicle: water): 117 % of control
T/C (endpoint: mean survival time, dose: 35.0 mg/kg/injection, schedule: Q01DX009 (ip), vehicle: saline): 123 % of control
T/C (endpoint: mean survival time, dose: 50.0 mg/kg/injection, schedule: Q04DX003 (ip), vehicle: saline): 90 % of control
T/C (endpoint: mean survival time, dose: 64.0 mg/kg/injection, schedule: Q01DX009 (ip), vehicle: clinical formulation): 164 % of control
T/C (endpoint: mean survival time, dose: 64.0 mg/kg/injection, schedule: Q01DX009 (ip), vehicle: water): 157 % of control
T/C (endpoint: mean survival time, dose: 81.0 mg/kg/injection, schedule: Q01DX009 (ip), vehicle: Klucel (hydroxypropylcellulose) (HPC)): 120 % of control
T/C [1]: 102 % of control
T/C [2]: 106 % of control
T/C (endpoint: mean survival time, dose: 112.0 mg/kg/injection, schedule: Q01DX009 (ip), vehicle: saline): 98 % of control and 105 % of control
T/C (endpoint: mean survival time, dose: 122.0 mg/kg/injection, schedule: Q01DX009 (ip), vehicle: Klucel (hydroxypropylcellulose) (HPC)): 112 % of control
T/C (endpoint: mean survival time, dose: 128.0 mg/kg/injection, schedule: Q01DX009 (ip), vehicle: clinical formulation): 91 % of control
T/C (endpoint: mean survival time, dose: 128.0 mg/kg/injection, schedule: Q01DX009 (ip), vehicle: water): 110 % of control
T/C (endpoint: mean survival time, dose: 150.0 mg/kg/injection, schedule: Q01DX009 (ip), vehicle: saline): 93 % of control
T/C [3]: 110 % of control
T/C [4]: 120 % of control
T/C [5]: 173 % of control
T/C (endpoint: mean survival time, dose: 264.0 mg/kg/injection, schedule: Q01DX001 (ip), vehicle: carboxymethylcellulose (CMC)): 112 % of control
T/C (endpoint: mean survival time, dose: 264.0 mg/kg/injection, schedule: Q01DX009 (ip), vehicle: carboxymethylcellulose (CMC)): 124 % of control
T/C (endpoint: mean survival time, dose: 300.0 mg/kg/injection, schedule: Q04DX003 (ip), vehicle: saline): 184 % of control
T/C (endpoint: mean survival time, dose: 400.0 mg/kg/injection, schedule: Q01DX001 (ip), vehicle: carboxymethylcellulose (CMC)): 157 % of control
T/C (endpoint: median survival time, dose: 4.0 mg/kg/injection, schedule: Q01DX009 (ip), vehicle: saline): 90 % of control
T/C (endpoint: median survival time, dose: 4.0 mg/kg/injection, schedule: Q03HX016 (ip), vehicle: saline): 100 % of control
T/C (endpoint: median survival time, dose: 4.0 mg/kg/injection, schedule: Q03HX024 (ip), vehicle: saline): 100 % of control
T/C (endpoint: median survival time, dose: 8.0 mg/kg/injection, schedule: Q01DX009 (ip), vehicle: saline): 100 % of control
T/C (endpoint: median survival time, dose: 8.0 mg/kg/injection, schedule: Q03HX008 (ip), vehicle: saline): 100 % of control
T/C (endpoint: median survival time, dose: 8.0 mg/kg/injection, schedule: Q03HX016 (ip), vehicle: saline): 100 % of control
T/C (endpoint: median survival time, dose: 8.0 mg/kg/injection, schedule: Q03HX024 (ip), vehicle: saline): 105 % of control
T/C (endpoint: median survival time, dose: 16.0 mg/kg/injection, schedule: Q01DX009 (ip), vehicle: saline): 110 % of control
T/C (endpoint: median survival time, dose: 16.0 mg/kg/injection, schedule: Q01DX009 (sc), vehicle: saline): 100 % of control
T/C (endpoint: median survival time, dose: 16.0 mg/kg/injection, schedule: Q03HX008 (ip), vehicle: saline): 110 % of control
T/C (endpoint: median survival time, dose: 16.0 mg/kg/injection, schedule: Q03HX016 (ip), vehicle: saline): 100 % of control
T/C (endpoint: median survival time, dose: 32.0 mg/kg/injection, schedule: Q01DX001 (ip), vehicle: saline): 100 % of control
T/C (endpoint: median survival time, dose: 32.0 mg/kg/injection, schedule: Q01DX009 (oral), vehicle: saline): 100 % of control and 120 % of control
T/C (endpoint: median survival time, dose: 32.0 mg/kg/injection, schedule: Q01DX009 (sc), vehicle: saline): 115 % of control
T/C (endpoint: median survival time, dose: 32.0 mg/kg/injection, schedule: Q04DX003 (ip), vehicle: saline): 100 % of control
T/C (endpoint: median survival time, dose: 32.0 mg/kg/injection, schedule: Q08DX002 (ip), vehicle: saline): 100 % of control
T/C (endpoint: median survival time, dose: 64.0 mg/kg/injection, schedule: Q01DX001 (ip), vehicle: saline): 100 % of control
T/C (endpoint: median survival time, dose: 64.0 mg/kg/injection, schedule: Q01DX001 (sc), vehicle: saline): 100 % of control
T/C (endpoint: median survival time, dose: 64.0 mg/kg/injection, schedule: Q01DX009 (oral), vehicle: saline): 115 % of control
T/C (endpoint: median survival time, dose: 64.0 mg/kg/injection, schedule: Q04DX003 (ip), vehicle: saline): 110 % of control
T/C (endpoint: median survival time, dose: 64.0 mg/kg/injection, schedule: Q08DX002 (ip), vehicle: saline): 100 % of control
T/C (endpoint: median survival time, dose: 128.0 mg/kg/injection, schedule: Q01DX001 (ip), vehicle: saline): 110 % of control
T/C (endpoint: median survival time, dose: 128.0 mg/kg/injection, schedule: Q01DX001 (sc), vehicle: saline): 105 % of control
T/C (endpoint: median survival time, dose: 128.0 mg/kg/injection, schedule: Q01DX009 (oral), vehicle: saline): 120 % of control
T/C (endpoint: median survival time, dose: 128.0 mg/kg/injection, schedule: Q01DX009 (sc), vehicle: saline): 95 % of control
T/C (endpoint: median survival time, dose: 256.0 mg/kg/injection, schedule: Q01DX001 (oral), vehicle: saline): 110 % of control and 120 % of control
T/C (endpoint: median survival time, dose: 256.0 mg/kg/injection, schedule: Q01DX009 (oral), vehicle: saline): 100 % of control
T/C (endpoint: median survival time, dose: 512.0 mg/kg/injection, schedule: Q01DX001 (oral), vehicle: saline): 110 % of control and 120 % of control

NCC(=O)NC(Cc1ccccc1)C(=O)O (configuration not stated) (H-Gly-[ξF]-OH)
T/C (endpoint: mean survival time, dose: 50.0 mg/kg/injection, schedule: Q01DX001 (ip), vehicle: saline): 110 % of control
T/C [1]: 96 % of control
T/C [3]: 112 % of control
T/C [6]: 107 % of control

CC(=O)OC1CCCCC1C (configuration not stated)
T/C [1]: 102 % of control
T/C [3]: 94 % of control
T/C [6]: 91 % of control

COc1ccc(Cl)cc1NC(=O)c1ccc(Cl)cc1Cl
T/C (endpoint: mean survival time, dose: 100.0 mg/kg/injection, schedule: Q01DX009 (ip), vehicle: saline with Tween-80): 96 % of control
T/C (endpoint: mean survival time, dose: 100.0 mg/kg/injection, schedule: Q04DX003 (ip), vehicle: saline with Tween-80): 98 % of control
T/C (endpoint: mean survival time, dose: 200.0 mg/kg/injection, schedule: Q01DX009 (ip), vehicle: saline with Tween-80): 94 % of control
T/C (endpoint: mean survival time, dose: 200.0 mg/kg/injection, schedule: Q04DX003 (ip), vehicle: saline with Tween-80): 93 % of control
T/C (endpoint: mean survival time, dose: 400.0 mg/kg/injection, schedule: Q01DX009 (ip), vehicle: saline with Tween-80): 102 % of control
T/C (endpoint: mean survival time, dose: 400.0 mg/kg/injection, schedule: Q04DX003 (ip), vehicle: saline with Tween-80): 97 % of control

C1CN2CN1CN1CCN(C1)C2
T/C (endpoint: mean survival time, dose: 12.5 mg/kg/injection, schedule: Q01DX009 (ip), vehicle: saline): 101 % of control
T/C (endpoint: mean survival time, dose: 25.0 mg/kg/injection, schedule: Q01DX009 (ip), vehicle: saline): 108 % of control
T/C (endpoint: mean survival time, dose: 50.0 mg/kg/injection, schedule: Q01DX009 (ip), vehicle: saline): 114 % of control

Cc1c(Cl)cccc1NS(=O)(=O)c1ccc(Cl)cc1
T/C (endpoint: mean survival time, dose: 100.0 mg/kg/injection, schedule: Q01DX009 (ip), vehicle: Klucel (hydroxypropylcellulose) (HPC)): 117 % of control
T/C (endpoint: mean survival time, dose: 100.0 mg/kg/injection, schedule: Q04DX003 (ip), vehicle: Klucel (hydroxypropylcellulose) (HPC)): 102 % of control
T/C [4]: 111 % of control
T/C (endpoint: mean survival time, dose: 200.0 mg/kg/injection, schedule: Q04DX003 (ip), vehicle: Klucel (hydroxypropylcellulose) (HPC)): 119 % of control
T/C (endpoint: mean survival time, dose: 400.0 mg/kg/injection, schedule: Q01DX009 (ip), vehicle: Klucel (hydroxypropylcellulose) (HPC)): 101 % of control
T/C (endpoint: mean survival time, dose: 400.0 mg/kg/injection, schedule: Q04DX003 (ip), vehicle: Klucel (hydroxypropylcellulose) (HPC)): 110 % of control

O=P(O)(O)c1ccc(N=Nc2ccc(P(=O)(O)O)cc2)cc1
T/C [2]: 94 % of control
T/C [5]: 107 % of control
T/C (endpoint: mean survival time, dose: 400.0 mg/kg/injection, schedule: Q04DX003 (ip), vehicle: saline): 97 % of control

Cc1cc(C)c(C(=O)O)cc1C
T/C (endpoint: mean survival time, dose: 75.0 mg/kg/injection, schedule: Q01DX001 (ip), vehicle: saline): 102 % of control
T/C (endpoint: mean survival time, dose: 150.0 mg/kg/injection, schedule: Q01DX001 (ip), vehicle: saline): 94 % of control
T/C (endpoint: mean survival time, dose: 300.0 mg/kg/injection, schedule: Q01DX001 (ip), vehicle: saline): 102 % of control

C[n+]1cccc2cc(NC(=O)c3ccc(C(=O)Nc4ccc5c(ccc[n+]5C)c4)cc3)ccc21
T/C (endpoint: mean survival time, dose: 0.94 mg/kg/injection, schedule: Q01DX Z (ip), vehicle: saline): 94 % of control
T/C (endpoint: mean survival time, dose: 1.88 mg/kg/injection, schedule: Q01DX Z (ip), vehicle: saline): 92 % of control
T/C (endpoint: mean survival time, dose: 30.0 mg/kg/injection, schedule: Q01DX010 (oral), vehicle: saline): 100 % of control
T/C (endpoint: mean survival time, dose: 240.0 mg/kg/injection, schedule: Q01DX010 (oral), vehicle: saline): 100 % of control
